In US5350768A, “Derivatives of cysteine” (priority 1987, dated 1994):
Read-outs that look alike come from different tables or passages of the source.

Experiments:
[1] = Plasma concentrations and urinary excretion in healthy human volunteers after oral intake
Experimental: (§1) Therefore, experiments were performed to investigate biological stability and bioavailability of the compounds of formula I, and to compare these with N-acetyl-L-cysteine.
Plasma concentrations and urinary excretion in helthy human volunteers were measured after oral intake of N-acetyl-L-cysteine, and N-isobutyryl-L-cysteine, 1.23 mmole of each.

[2] = Experimental: as §1
[3] = Plasma thiol concentrations after intraintestinal injection in anaesthetized rats
Experimental: as §1
The thiols were injected into the intestines of anaesthetized rats. At various times after the injections blood samples were withdrawn, and plasma thiols analyzed. […] The values given represent mean±SEM, unless otherwise stated.

Row | biological stability (in words) [2] | bioavailability / plasma levels after oral intake (in words) ([1]; human, in vivo, po) | concentration ([3]; rat, in vivo) [µM] | hydrolysis in homogenates [2] | SMILES | Cmax ([1]; human, in vivo, po, 1.23 mmol) [µM] | bioavailability / plasma levels after oral intake (in words) ([1]; oral intake) | plasma level after intraintestinal injection (in words) ([3]; rat, in vivo) | concentration ([3]; read-out: concentrations of the thiols in plasma, after injection into intestines of anaesthetized rats, only one experiment performed) [µM]
1 | much more biologically stable | reached high concentrations in plasma | 13 ± 2.9 | – | CC(C)C(=O)N[C@@H](CS)C(=O)O [N-isobutyryl-L-cysteine] | – | – | reached considerable concentrations | –
2 | much more biologically stable | – | 11.8 | not hydrolyzed to any measureable extent | CC(C)(C)C(=O)N[C@@H](CS)C(=O)O [N-pivaloyl-L-cysteine] | – | – | – | –

Row | SMILES | biological stability (in words) [2] | bioavailability / plasma levels after oral intake (in words) ([1]; human, in vivo, po) | concentration ([3]; rat, in vivo) [µM] | hydrolysis in homogenates [2] | Cmax ([1]; human, in vivo, po, 1.23 mmol) [µM] | bioavailability / plasma levels after oral intake (in words) ([1]; oral intake) | plasma level after intraintestinal injection (in words) ([3]; rat, in vivo) | concentration ([3]; read-out: concentrations of the thiols in plasma, after injection into intestines of anaesthetized rats, only one experiment performed) [µM]
3 | CC(=O)N[C@@H](CS)C(=O)O [N-acetyl-L-cysteine, reference compound] | biologically unstable | – | – | – | < 1 | poor bioavailability | barely detectable in plasma | 0.7
